Reference: US10851096B2, “Aryl and heteroaryl amides for use as anti-proliferative, anti-thrombotic, and anti-viral agents” (Rutgers, The State University of New Jersey, priority 2016, dated 2020)

Molecular target: T1, hAxl/IFN-γR1 (Homo sapiens, UniProt P30530)
T1 construct: containing human Axl extracellular domains and transmembrane and intracellular domains of human IFN-γR1; human IFN-γR1 transmembrane and intracellular domains (fusion partner); expressed in transfected cells
T1 sequence (P30530 26-451 limits assumed): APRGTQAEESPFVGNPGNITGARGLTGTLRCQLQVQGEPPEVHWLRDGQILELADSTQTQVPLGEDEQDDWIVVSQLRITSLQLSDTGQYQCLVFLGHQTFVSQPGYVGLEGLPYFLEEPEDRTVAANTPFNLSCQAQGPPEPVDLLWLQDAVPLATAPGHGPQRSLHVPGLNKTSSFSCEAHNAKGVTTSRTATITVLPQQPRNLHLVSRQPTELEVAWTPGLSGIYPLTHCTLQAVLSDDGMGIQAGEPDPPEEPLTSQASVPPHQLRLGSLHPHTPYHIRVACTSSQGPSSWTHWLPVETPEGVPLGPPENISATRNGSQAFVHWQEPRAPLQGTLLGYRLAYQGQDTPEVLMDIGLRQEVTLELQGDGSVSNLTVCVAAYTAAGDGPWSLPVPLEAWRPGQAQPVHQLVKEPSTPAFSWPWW
Assay: hAxl/IFN-γR1 CHO reporter cell line assay, Gas6-induced activation (pSTAT1 immunoblot)
Assay type: cell-based
Conditions: not given
Protocol: Stable HEK 293 cells secreting human Gas6 (clone 7.4.1) were allowed to achieve 70% confluence in a 10-cm plate. The complete medium with 10% FBS was then changed into serum free media in the presence of 10 µg/mL vitamin K1 (Phytonadione injectable emulsion from Hospira). After 72 hours, the Gas6 conditioned medium was collected, and validated for the presence of Gas6 and γ-carboxylation (by immunoblot) and activity of Gas6 (via activation of pSTAT1 in hAxl/γR1 cells).
Stable hAxl/IFN-γR1 CHO reporter cell lines (containing human Axl extracellular domains and transmembrane and intracellular domains of human IFN-γR1) were serum starved for 5 hrs±small molecule inhibitors and then stimulated with human Gas6 conditioned media±small molecule inhibitors for 30 minutes. For H1299 human non-small cell lung carcinoma and MDA-MB-231 human breast adenocarcinoma cell lines, the cells were serum starved overnight±small molecule inhibitors and stimulated with human Gas6 conditioned media±small molecule inhibitors for 30 minutes. Whole cell lysates of hAxl/IFN-γR1, H1299 and MDA-MB-231 cells were prepared using HNTG buffer (20 mM HEPES, pH 7.5, 150 mM NaCl, 10% glycerol, 1% Triton X-100, 1 mM PMSF, 1 mM Na3VO4, 10 mM Na2MoO4, 1 mM EDTA, 10 mM NaF and 20 μg/mL aprotinin). The resulting lysates were resolved on SDS-PAGE gel and immunoblotted with respective antibodies.
Immunoblot data were obtained within a linear range of exposure, and intensities were quantified by ImageJ. The levels of hAxl/IFN-γR1 cells lines activation were measured by pSTAT1 whereas the levels of H1299 and MDA-MB-231 cell lines activation were measured by pAxl signal intensities. Blots were normalized to intensities of respective β-actin or GAPDH protein loading controls. The levels of pSTAT1 or pAxl activation induced by Gas6±small molecule inhibitors were plotted as a fold of enhancement or reduction over intensities induced by Gas6 alone.

Row | remaining activity at 10 µM [%] | Structure (SMILES)
1 | 20 | Cc1noc(C)c1CSc1ccccc1C(=O)N1CCN(Cc2cccs2)CC1 [1M]
2 | 9 | Cc1cc(CSc2ccccc2C(=O)NCCNc2ccc(C(F)(F)F)cc2C#N)on1 [Compound 8]
3 | 6 | Cc1cc(CSc2ccccc2C(=O)NCCNc2ccc(C(F)(F)F)cn2)on1 [Compound 6]
4 | 16 | Cc1cc(CSc2ccccc2C(=O)NCCNc2ncccn2)on1 [Compound 27]
5 | 16 | Cc1cc(CSc2ccccc2C(=O)NCCNc2ccc(C#N)cc2)on1 [Compound 12]
6 | 57 | Cc1cc(CSc2ncccc2C(=O)NCCNc2ccc(C(F)(F)F)cc2[N+](=O)[O-])on1 [Compound 2]
7 | 8 | Cc1cc(CSc2ccccc2C(=O)N2CCN(Cc3nc4cc(Cl)ccc4s3)CC2)no1 [Compound 21]
8 | 20 | O=C(c1ccccc1SCc1ccsc1)N1CCN(Cc2ccncc2)CC1 [1H]
9 | 108 | CCN(C(=O)CN1CCN(C(=O)c2ccccc2SCc2cc(C)on2)CC1)c1ccc(F)cc1 [Compound 22]
10 | 20 | Cc1cc(CSc2ccccc2C(=O)NCCNc2nc3ccccc3o2)on1 [Compound 9]
11 | 27 | Cc1ccc(NC(=O)CN2CCN(C(=O)c3ccccc3SCc3cc(C)on3)CC2)c(Cl)c1 [Compound 25]
12 | 20 | Cc1cc(CSc2ncccc2C(=O)N2CCN(CC(=O)Nc3ccccc3Cl)CC2)no1 [1L]
13 | 110 | Cc1cc(CSc2ccccc2C(=O)N2CCN(CC(=O)Nc3ccc(F)cc3)CC2)no1 [Compound 14]
14 | 60 | Cc1cc(CSc2ccccc2C(=O)N2CCN(Cc3ccc4c(c3)CCO4)CC2)no1 [1A]
15 | 79 | Cc1cc(CSc2ccccc2C(=O)N2CCN(CC(=O)Nc3ccc(Cl)cc3)CC2)no1 [Compound 17]
16 | 60 | Cc1nc(CSc2ccccc2C(=O)N2CCN(Cc3ccccc3)CC2)cs1 [1E]
17 | 40 | Cc1cc(CSc2ccccc2C(=O)NCCNc2ccccc2[N+](=O)[O-])on1 [1R]
18 | 40 | O=C(c1ccccc1SCc1cccs1)N1CCN(Cc2ccncc2)CC1 [1O]
19 | 100 | Cc1nc(COc2ccccc2C(=O)N2CCN(Cc3ccncc3)CC2)cs1 [1P]
20 | 50 | Cc1cc(CSc2ccccc2C(=O)N2CCN(Cc3ccncc3)CC2)no1 [1D]
21 | 6 | Cc1cc(CSc2ccccc2C(=O)NCCNc2nc(C(F)(F)F)cs2)on1 [Compound 13]

Row | remaining activity at 10 µM [%] | Structure (SMILES)
22 | 141 | Cc1cc(CSc2ccccc2C(=O)N2CCN(Cc3nc4ccccc4[nH]3)CC2)no1 [Compound 15]
23 | 83 | Cc1cc(CSc2nc(C)cc(C)c2C(=O)NCCNc2ccc(C(F)(F)F)cc2[N+](=O)[O-])on1 [Compound 4]
24 | 33 | Cc1cc(CSc2ccccc2C(=O)NCCNc2nc3cc(C(F)(F)F)ccc3s2)on1 [Compound 7]
25 | 80 | Cc1cc(CSc2ncccc2C(=O)N2CCN(CC(=O)Nc3cccc(C)c3C)CC2)no1 [1K]
26 | 41 | Cc1cc(CSc2ccccc2C(=O)N2CCN(Cc3nc4ccccc4o3)CC2)no1 [Compound 19]
27 | 29 | Cc1cc(CSc2ccccc2C(=O)NCCNc2ccc(C(F)(F)F)c(C#N)c2)on1 [Compound 11]
28 | 20 | Cc1cc(CSc2ccccc2C(=O)N2CCN(Cc3nc4ccccc4s3)CC2)no1 [1F]
29 | 13 | Cc1cc(CSc2ccccc2C(=O)NCCNc2nc3ccccc3s2)on1 [Compound 5]
30 | 55 | Cc1cc(CSc2ccccc2C(=O)N2CCN(Cc3nc4cccc(Cl)c4o3)CC2)no1 [Compound 20]
31 | 54 | Cc1cc(CSc2ccccc2C(=O)N2CCN(CC(=O)NCc3ccc(Cl)cc3)CC2)no1 [Compound 26]
32 | 60 | Cc1cc(CSc2ccccc2C(=O)N2CCN(Cc3ccc(C#N)cc3)CC2)no1 [1C]
33 | 70 | Cc1cc(CSc2ccccc2C(=O)N2CCN(CC(=O)N3CCOCC3)CC2)no1 [1B]
34 | 109 | Cc1cc(CSc2ccccc2C(=O)N2CCN(CC(=O)Nc3ccccc3F)CC2)no1 [Compound 16]
35 | 6 | Cc1cc(CSc2ccccc2C(=O)NCCNc2ncc(C(F)(F)F)cc2Cl)on1 [Compound 28]
36 | 26 | Cc1cc(CSc2ncncc2C(=O)NCCNc2ccc(C(F)(F)F)cc2[N+](=O)[O-])on1 [Compound 3]
37 | 8 | Cc1cc(CSc2ccccc2C(=O)N2CCN(Cc3nc4cc(C(F)(F)F)ccc4s3)CC2)no1 [Compound 23]
38 | 90 | COc1ccc2nc(CN3CCN(C(=O)c4ccccc4SCc4cc(C)on4)CC3)sc2c1 [Compound 24]
39 | 30 | Cc1cc(CSc2ccccc2C(=O)N2CCN(CC(=O)Nc3ccccc3Cl)CC2)no1 [1N]
40 | 14 | Cc1cc(CSc2ccccc2C(=O)NCCNc2ccc(F)cc2C#N)on1 [Compound 10]
41 | 46 | Cc1cc(CSc2ccccc2C(=O)N2CCN(CC(=O)Nc3ccc(Cl)cn3)CC2)no1 [Compound 18]

Molecular target: T2, Tyro3 (Homo sapiens, UniProt Q06418)
T2 sequence (Q06418 41-890): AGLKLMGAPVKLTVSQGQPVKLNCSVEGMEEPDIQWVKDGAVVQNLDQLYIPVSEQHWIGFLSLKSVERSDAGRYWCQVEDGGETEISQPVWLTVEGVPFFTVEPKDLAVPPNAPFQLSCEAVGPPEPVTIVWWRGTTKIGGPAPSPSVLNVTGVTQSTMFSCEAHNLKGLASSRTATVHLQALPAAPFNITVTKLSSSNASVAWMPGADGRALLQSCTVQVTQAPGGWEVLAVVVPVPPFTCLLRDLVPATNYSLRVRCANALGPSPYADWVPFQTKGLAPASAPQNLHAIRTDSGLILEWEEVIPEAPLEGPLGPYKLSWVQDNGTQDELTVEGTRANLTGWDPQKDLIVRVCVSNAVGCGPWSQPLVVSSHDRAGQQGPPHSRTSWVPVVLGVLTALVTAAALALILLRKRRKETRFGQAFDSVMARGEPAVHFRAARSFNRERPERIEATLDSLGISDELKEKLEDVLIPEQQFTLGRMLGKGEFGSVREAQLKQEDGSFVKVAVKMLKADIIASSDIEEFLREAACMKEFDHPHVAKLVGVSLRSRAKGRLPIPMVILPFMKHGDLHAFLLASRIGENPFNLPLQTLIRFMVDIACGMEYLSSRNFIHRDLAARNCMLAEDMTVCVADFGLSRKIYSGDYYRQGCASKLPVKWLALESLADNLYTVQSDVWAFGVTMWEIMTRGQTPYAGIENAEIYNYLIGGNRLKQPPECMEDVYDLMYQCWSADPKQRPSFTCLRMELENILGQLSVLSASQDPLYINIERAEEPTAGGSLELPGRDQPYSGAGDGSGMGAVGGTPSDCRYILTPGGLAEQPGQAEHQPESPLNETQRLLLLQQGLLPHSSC
Assay: not given
Conditions: cited from earlier work

Row | Structure (SMILES) | IC50 [nM]
42 | Nc1nc(Nc2ccc3c(c2)CC[C@@H](N2CCCC2)CC3)nn1-c1cc2c(nn1)-c1ccccc1CCC2 [BGB324] | 1400
